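Results reflect a 48-hour exposure of cells in 96-well plates to compound at five concentrations. GI50 is the concentration that inhibits growth by half. TGI marks complete inhibition of growth.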
Key:
Experiment in all cases: DTP human tumour cell line panel, 48 h
SF-295 CNS = tested on: SF-295 CNS
UACC-62 melanoma = tested on: UACC-62 melanoma
KM12 colon = tested on: KM12 colon
UACC-257 melanoma = tested on: UACC-257 melanoma
U251 CNS = tested on: U251 CNS
MDA-MB-231 breast = tested on: MDA-MB-231 breast
HT29 colon = tested on: HT29 colon
HS 578T breast = tested on: HS 578T breast
HOP-62 NSCLC = tested on: HOP-62 NSCLC
SK-MEL-28 melanoma = tested on: SK-MEL-28 melanoma

Row | SMILES | TGI (SF-295 CNS) | TGI (UACC-62 melanoma) | TGI (KM12 colon) | TGI (UACC-257 melanoma) | TGI (U251 CNS) | TGI (MDA-MB-231 breast) | TGI (HT29 colon) | TGI (HS 578T breast) | TGI (HOP-62 NSCLC) | TGI (SK-MEL-28 melanoma) | GI50 (SF-295 CNS) | GI50 (UACC-62 melanoma) | GI50 (KM12 colon) | GI50 (UACC-257 melanoma) | GI50 (U251 CNS) | GI50 (MDA-MB-231 breast) | GI50 (HT29 colon) | GI50 (HS 578T breast) | GI50 (HOP-62 NSCLC) | GI50 (SK-MEL-28 melanoma)
1 | N#CC1=C(N)Nc2nc3ccccc3n2C1c1ccccc1 (stereo not drawn) | > 100 µM | > 100 µM | > 100 µM | > 100 µM | > 100 µM | > 100 µM | > 100 µM | > 100 µM | > 100 µM | – | – | – | – | – | – | – | – | – | – | –
2 | S=C1NN=C2C(=C3CCCC4C5CCCCC5N2C34)N1 (stereo not drawn) | > 100 µM | – | > 100 µM | > 100 µM | – | – | – | > 100 µM | > 100 µM | > 100 µM | – | – | – | – | – | – | – | – | – | –
3 | COc1ccc(/C=C/[N+](=O)[O-])cc1 | 7.7 µM | 39.7 µM | 12 µM | 8.09 µM | 19.1 µM | 55.3 µM | 11.2 µM | 36.6 µM | > 100 µM | 28.3 µM | – | – | – | – | – | – | – | – | – | –
4 | C/C(=C\COP(=O)(O)OP(=O)(O)O)CC/C=C(\C)CNc1ccc([N+](=O)[O-])cc1 | > 100 µM | > 100 µM | > 100 µM | > 100 µM | > 100 µM | > 100 µM | > 100 µM | > 100 µM | > 100 µM | > 100 µM | – | – | – | – | – | – | – | – | – | –
5 | C[C@H](CCC1=NCCN1)[C@H]1CC[C@H]2[C@@H]3CC[C@@H]4C[C@H](O)CC[C@]4(C)[C@H]3CC[C@]12C | 10.4 µM | 4.26 µM | > 47.4 µM | 6.6 µM | > 45.2 µM | > 41 µM | 3.65 µM | 48.2 µM | 20.9 µM | 4.86 µM | – | – | – | – | – | – | – | – | – | –
6 | NC(=O)c1cc(C2OC(CO)C(O)C2O)nn1-c1ccc([N+](=O)[O-])cc1 (stereo not drawn) | > 100 µM | > 100 µM | > 100 µM | > 100 µM | > 100 µM | – | > 100 µM | – | > 100 µM | > 100 µM | – | – | – | – | – | – | – | – | – | –
7 | C#C[C@@]1(O)[C@@H](CO)O[C@@H](n2cc(F)c3c(N)ncnc32)[C@@H]1O | 2.33 µM | 1.47 µM | 24.9 µM | 4.64 µM | 11.6 µM | 2.98 µM | > 100 µM | > 100 µM | 7.79 µM | > 100 µM | 0.653 µM | 0.331 µM | 0.502 µM | 0.487 µM | 0.631 µM | 0.379 µM | 0.207 µM | 3.97 µM | 0.571 µM | 4.26 µM
8 | COC(=O)c1nc2c3c(cccc3c1C(=O)OC)Nc1ccccc1-2 | > 100 µM | 55.7 µM | > 100 µM | > 100 µM | > 100 µM | > 100 µM | > 100 µM | > 100 µM | 71.7 µM | > 100 µM | – | – | – | – | – | – | – | – | – | –
9 | O=C(O)C(Br)Cc1ccc2c(c1)OCO2 (stereo not drawn) | > 100 µM | > 100 µM | > 100 µM | > 100 µM | > 100 µM | – | > 100 µM | – | > 100 µM | > 100 µM | – | – | – | – | – | – | – | – | – | –
10 | COc1ccc(/C(Cl)=C(\C=O)c2ccc(Cl)c(Cl)c2)cc1OC | 15.9 µM | 24.2 µM | – | – | 15 µM | – | 8.77 µM | – | 31.7 µM | 28 µM | – | – | – | – | – | – | – | – | – | –
11 | COc1cc2c3c(c4cc(OC)c(OC)cc4c2cc1OC)[C@H](O)[C@@H]1CCCN1C3 | 1.64 µM | 0.395 µM | 1.52 µM | 1.15 µM | 2.5 µM | 0.562 µM | 1.53 µM | – | 0.57 µM | > 100 µM | – | – | – | – | – | – | – | – | – | –
12 | CSc1sc(=S)sc1SC | > 100 µM | > 100 µM | > 100 µM | > 100 µM | > 100 µM | – | > 100 µM | – | > 100 µM | > 100 µM | – | – | – | – | – | – | – | – | – | –
13 | COc1cc2c3c(n(C4CCNCC4)c(=O)c2cc1OC)-c1cc2c(cc1C3=O)OCO2 | – | – | 2.53 µM | – | 2.01 µM | – | 2.33 µM | – | – | – | – | – | 1.11 µM | – | 0.279 µM | – | 0.264 µM | – | – | –
14 | Nc1nncs1 | > 5000 µM | > 3890 µM | > 5000 µM | > 4200 µM | > 5000 µM | > 5000 µM | > 3390 µM | > 5000 µM | 1700 µM | > 5000 µM | – | – | – | – | – | – | – | – | – | –
15 | COc1ccc2c(c1)/C(=C\c1cccc(/C=C3/C(=O)Nc4ccc(OC)cc43)n1)C(=O)N2 | 30.3 µM | 2.28 µM | 4.64 µM | 18.4 µM | 5.83 µM | 4.78 µM | – | > 46.9 µM | 5.07 µM | – | – | 0.703 µM | – | – | – | 0.873 µM | – | – | – | –
16 | CCOn1cc(C2=C(c3c[nH]c4ccccc34)C(=O)NC2=O)c2ccccc21 | 0.0443 µM | 20.3 µM | 2 µM | 20.5 µM | 19.5 µM | 26.4 µM | 12.8 µM | – | 18.5 µM | 25.3 µM | 0.0156 µM | < 0.01 µM | < 0.0161 µM | 0.859 µM | 0.488 µM | 0.806 µM | < 0.0224 µM | – | < 0.01 µM | 2.05 µM
17 | COC1/C=C\OC2(C)Oc3c(C)c(O)c4c(O)c(c(CN(C)C)c(O)c4c3C2=O)NC(=O)/C(C)=C\C=C/C(C)C(O)C(C)C(O)C(C)C(OC(C)=O)C1C (stereo not drawn) | > 100 µM | 41.2 µM | 99.6 µM | 60.9 µM | 42.6 µM | 92.8 µM | 54.4 µM | > 100 µM | > 100 µM | 97.5 µM | – | – | – | – | – | – | – | – | – | –
18 | O=C1OC2(c3ccc(O)cc3Oc3cc(O)ccc32)c2c1c(-c1ccccc1)c(-c1ccccc1)c(-c1ccccc1)c2-c1ccccc1 | 49.5 µM | 32.9 µM | 32.3 µM | 78.3 µM | 31.5 µM | 37.4 µM | 40.4 µM | 47.7 µM | 67.8 µM | 44.6 µM | – | – | – | – | – | – | – | – | – | –
19 | CCCCCCCCCCCCCCCCOCCCOP(=O)(O)C1CCCN(O)C1=O (stereo not drawn) | 11.3 µM | 7.18 µM | 11.3 µM | 14.8 µM | 15.3 µM | 16.8 µM | 83.5 µM | 66.7 µM | 18.6 µM | 44.3 µM | 2.44 µM | 1.29 µM | 0.572 µM | 3.23 µM | 0.489 µM | 2.3 µM | 0.953 µM | 14.1 µM | 0.837 µM | 3.46 µM
20 | CC1(C)N=C(N)N=C(N)N1c1cccc(OCc2cccc([N+](=O)[O-])c2)c1 | > 100 µM | > 100 µM | > 100 µM | 48.2 µM | 98.9 µM | > 100 µM | > 100 µM | > 100 µM | > 100 µM | > 100 µM | – | – | – | – | – | – | – | – | – | –

Source: PubChem BioAssay (NCI)
